In brackets after ≈: the same amount, converted by molar mass.
Experiments:
[1] = Aqueous thermodynamic solubility of the compound at pH 6.8 measured after 4 hrs by UV-HPLC analysis; assay type: physicochemical; conditions: buffer, pH 6.8; read-out: Therm_solubility
[2] = Stability of the compound in mouse liver microsomes assessed as parent compound remaining measured after 0.5 hrs; assay type: ADME, Microsome; conditions: mouse liver microsomes, read-out: Stability
[3] = Distribution coefficient, log D of the compound in 1-octanol and PBS buffer at pH 7.4 measured after 30 mins by LC-MS analysis; assay type: physicochemical; conditions: 1-octanol/PBS buffer

Row | Compound | solubility thermodynamic at 4 h [1] | remaining at 0.5 h [2] | logD at 0.5 h [3]
1 | Cn1nccc1[C@H]1CCC[C@@H]1Oc1cc(F)c(S(=O)(=O)Nc2ncns2)cc1F (racemic) | > 1900 µM | 91% | 0.6
2 | Cn1nccc1[C@H]1CCCC[C@@H]1Oc1cc(F)c(S(=O)(=O)Nc2ncns2)cc1F (racemic) | > 2000 µM | 75% | 0.7
3 | Cn1nccc1[C@H]1CCCCC[C@@H]1Oc1cc(F)c(S(=O)(=O)Nc2ccncn2)c(F)c1 (racemic) | 1040 µM (≈ 482 µg/mL) | 97% | 0.6
4 | Cc1nsc(NS(=O)(=O)c2cc(F)c(O[C@H]3CCC[C@@H]3c3ccnn3C)cc2F)n1 (racemic) | 1800 µM (≈ 820 µg/mL) | 69% | 0.9
5 | Cn1nccc1[C@H]1CCC[C@@H]1Oc1cc(F)c(S(=O)(=O)Nc2ccncn2)cc1F (racemic) | 740 µM (≈ 322 µg/mL) | 100% | 0.3
6 | Cn1nccc1[C@H]1CCC[C@@H]1Oc1ccc(S(=O)(=O)Nc2ccncn2)c(F)c1F (racemic) | 550 µM (≈ 240 µg/mL) | 82% | 0.4
7 | Cc1cc(S(=O)(=O)Nc2ccncn2)c(F)cc1O[C@H]1CCCC[C@@H]1c1ccnn1C (racemic) | 1800 µM (≈ 802 µg/mL) | 75% | 0.9
8 | Cc1cc(S(=O)(=O)Nc2ccncn2)c(F)cc1O[C@H]1CCC[C@@H]1c1ccnn1C (racemic) | 1200 µM (≈ 518 µg/mL) | 87% | 0.9
